Experimental findings from PubChem BioAssay AID1324 (NMMLSC, 2008) are described below.

Broadly, the EC50 is the concentration giving half of the maximal effect.

Structures are written as SMILES. Activity calls are given as the source filed them. No rule for the calls is given here.

In one test the target is glutathione S-transferase (GST-GSH binding). Briefly: GST–glutathione interaction disruption – biochemical, multiplex beads, flow cytometry, HPSMTB buffer, profiling panel (AID 1324).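 Also: glutathione beads loaded with GST-green fluorescent protein and no fluorescent Bim peptide.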 Conditions: multiplex bead flow cytometry, MCF.
Turning to `CN1CCN(C2=C(Cl)C(=O)C(c3cnc(N4CCCCC4)s3)=C(Cl)C2=O)CC1`, the EC50 is 220 nM. As for `c1ccc(Nc2cccc(Nc3ccccc3)n2)cc1`, the EC50 entry was “inactive”.

On to `O=C(Nc1ccc2nc(-c3ccco3)c(-c3ccco3)nc2c1)N1CCCCCC1`, for which the EC50 entry is “inactive”.

The same test, now with this note: multiplex bead flow cytometry, MCF, hits give high values, concentration not given here.
As for `Clc1nc(NCc2cccnc2)nc(N2CCOCC2)n1`, the percent span inhibition result is “inactive”. As to `CCN(CC)c1ccc(NC(=O)c2ccccc2)cc1S(=O)(=O)Nc1ccccc1OC`, the percent span inhibition entry is “inactive”.

Regarding `C/C(=N\NC(=O)COc1ccc(C(C)(C)C)cc1)c1ccc2c(c1)OCCO2`, the percent span inhibition result was “inactive”. Consider `Cc1ccc(-c2nc3c(c(=O)[nH]c(=O)n3Cc3ccccc3)n2Cc2ccccc2)o1`, for which the percent span inhibition entry is “inactive”.

With `CN(C)c1ccc(C=C2C(=O)NC(=O)NC2=O)cc1[N+](=O)[O-]`, the percent span inhibition result was “inactive”.

For the compound `COc1cc(N2CCOCC2)ccc1C=C1C(=O)NC(=O)NC1=O`, the percent span inhibition entry is “inactive”.

Consider `O=C(O)c1ccc(NS(=O)(=O)c2ccc3c(c2)C(=O)c2ccccc2C3=O)cc1`, for which the percent span inhibition result is “inactive”.

As to `O=C(CSc1nnc(-c2cccs2)n1Cc1ccco1)c1ccc2c(c1)OCO2`, the percent span inhibition entry is “inactive”. Still for that read-out and setting: the result for `N=C1C(c2nc3ccccc3s2)=C(O)CN1Cc1ccccc1` reads “inactive”; that for `CC(C)CN1C(=O)/C(=C/c2ccco2)NC1=S`, “inactive”; that for `O=C(Nc1cccc(Cl)c1)Nc1ccc(Cl)cn1`, “inactive”. On the same count and under the same terms, the result for `CC(NC(=O)Nc1ccccn1)N1C(=O)C2C3C=CC(C3)C2C1=O` (configuration not stated) reads “inactive”; that for `Nc1ccc(-c2cn3cccnc3n2)cc1`, “inactive”; that for `Cn1c(N)c(C(=O)COC(=O)c2cncc(Br)c2)c(=O)n(C)c1=O`, “inactive”. Still for that read-out and setting: the result for `Cc1ccc(N=c2ssnc2Cl)cc1` reads “inactive”; that for `CCOC(=O)c1sc(NC(=O)c2ccncc2)c(C#N)c1C`, “inactive”. As for `COc1ccc(NC(=O)COc2ncnc3ccccc23)cc1S(=O)(=O)N1CCOCC1`, the percent span inhibition result was “inactive”. Take `COc1ccc(S(=O)(=O)NCCSc2ccc(Cl)cc2)cc1OC`: the percent span inhibition entry was “inactive”. The same measure, in the same setting: for `Cc1ccc(S(=O)(=O)NC(=O)COc2ccccc2C)cc1` the value was “inactive”; for `Cc1ccc(N=Cc2c(O)n(-c3ccc4c(c3)OCO4)c(=O)c3ccccc23)cc1`, “inactive”. Consider `CCOC(=O)C1=C(CC)Nc2ccccc2N=C1NC(=O)c1ccc(S(=O)(=O)N2CCOCC2)cc1`, for which the percent span inhibition result is “inactive”. Still for that read-out and setting: for `CC(/C=C/C(=O)c1ccc(C)cc1)=C\c1ccccc1` the value was “inactive”; for `COc1cc(/C=N/NC(=O)CN(Cc2ccco2)S(=O)(=O)c2ccccc2)ccc1O`, “inactive”. For `CCCCc1ccc(NC(=S)NCc2ccc(OC)cc2)cc1`, the percent span inhibition entry is “inactive”. The same measure, in the same setting: the result for `COc1ccc(CCNC(=O)c2ccc3nc(-c4ccco4)c(-c4ccco4)nc3c2)cc1OC` reads “inactive”; that for `COc1ccc(OC)c(-n2c(-c3ccc(C)cc3)n[nH]c2=S)c1`, “inactive”; that for `O=S1(=O)N=C(N(CCO)/N=C/c2ccccc2)c2ccccc21`, “inactive”.

In the case of `OCCN1CCN(CCCc2c3c(cc4c2CCC4)CCC3)CC1`, the percent span inhibition result was “inactive”. As for `O=C(Nc1nnc(C2CC2)s1)C1Cc2ccccc2CN1S(=O)(=O)c1ccccc1F` (configuration not stated), the percent span inhibition entry was “inactive”. As to `CN(C)S(=O)(=O)N(CC(=O)Nc1ccccc1C(F)(F)F)c1ccccc1`, the percent span inhibition result is “inactive”. With `O=C(N/N=C/c1cccnc1)c1cccc(S(=O)(=O)N2CCCC2)c1`, the percent span inhibition entry was “inactive”.

As to `Cc1ccc(/C=N/N(C)C2=NS(=O)(=O)c3ccccc32)o1`, the percent span inhibition result was “inactive”. The same measure, in the same setting: the result for `CCC(CC)C(=O)Nc1cccc(S(=O)(=O)c2cccc(NC(=O)C(CC)CC)c2)c1` reads “inactive”; that for `Nc1cccc(-c2cn3cccnc3n2)c1`, “inactive”; that for `COCCn1nnnc1CN(Cc1ccco1)Cc1cc2cc3c(cc2[nH]c1=O)OCO3`, “inactive”. The same measure, in the same setting: the result for `COc1ccccc1-n1c(-c2ccccc2)c[nH]c1=S` reads “inactive”; that for `CC1Cc2ccccc2N1C(=O)CSc1nnnn1-c1ccc2c(c1)OCCO2` (configuration not stated), “inactive”; that for `CCCn1c(SCC(=O)Nc2ccccc2-c2ccccc2)nnc1-c1ccoc1C`, “inactive”.

Take `COc1ccc(C2=Nc3cccc4cccc(c34)N2)cc1`: the percent span inhibition result is “inactive”. With `COc1ccc(NC(=O)Cc2c(F)cccc2Cl)c(OC)c1`, the percent span inhibition entry is “inactive”. For `Cc1ccc(-c2cc(-c3ccc(F)cc3)c(C#N)c(N)n2)o1`, the percent span inhibition entry was “inactive”. On the same count and under the same terms, for `Cc1ccc(NC(=O)CSc2nc3ccccc3c(=O)n2CCCN2CCCCC2)cc1Cl` the value was “inactive”; for `CCCCOc1ccc(Cc2c(Cl)nc(SC)nc2N2CCOCC2)cc1`, “inactive”; for `Cc1ccc(-c2c3c([nH]c(=S)c2C#N)CCCC3)o1`, “inactive”. As for `O=C(COc1ccccc1Br)NCc1ccccn1`, the percent span inhibition result is “inactive”. Still for that read-out and setting: for `C=CS(=O)(=O)c1sc(Cl)c(N2CCOCC2)c1[N+](=O)[O-]` the value was “inactive”. With `Cc1ccnc(NS(=O)(=O)c2ccc(NS(=O)(=O)c3cccs3)cc2)n1`, the percent span inhibition result was “inactive”. `CCOc1cc(CNc2ccc(N(C)C)cc2)cc(Br)c1OCC(=O)NC(C)(C)C`: the percent span inhibition result is “inactive”.

For the compound `CC(C)C(=O)N1CCN(c2ccc([N+](=O)[O-])cc2Cl)CC1`, the percent span inhibition result is “inactive”. As to `COc1cc(C2Nc3cccc4cccc(c34)N2)cc(OC)c1O`, the percent span inhibition result was “inactive”. On the same count and under the same terms, the result for `CCCCCCc1cc2cc(C(=O)Nc3ccccc3)c(=O)oc2cc1O` reads “inactive”. For the compound `CNc1ccc(Br)cc(C(=O)/C=C/c2ccc(OC)cc2)c1=O`, the percent span inhibition entry was “inactive”.

Regarding `COc1cc(/C=N/NC(=O)c2ccc([N+](=O)[O-])cc2Cl)cc(Br)c1O`, the percent span inhibition result is “inactive”.

Turning to `O=C(CC1NCCNC1=O)Nc1cccc([N+](=O)[O-])c1` (configuration not stated), the percent span inhibition entry is “inactive”. On the same count and under the same terms, the result for `COC(=O)c1ccc(-n2nnnc2SCC(=O)Nc2cc(OC)ccc2OC)cc1` reads “inactive”; that for `COc1c(C)cc(Br)cc1C(=O)Nc1ccc(S(N)(=O)=O)cc1`, “inactive”; that for `Cc1onc(-c2ccccc2Cl)c1C(=O)Nc1nn[nH]n1`, “inactive”. As to `O=C(CSc1nnc(Cc2ccccc2)o1)NCc1ccco1`, the percent span inhibition entry is “inactive”.

On to `CCOC(=O)c1nc(Nc2ccc(N3CCC(C)CC3)cc2)c2ccccc2n1`, for which the percent span inhibition result was “inactive”. As to `CS(=O)(=O)NN1C(=O)c2ccccc2NC1c1cccc2cccnc12` (configuration not stated), the percent span inhibition entry was “inactive”. Same read-out and setting: for `CN1C(=O)/C(=C/c2ccc(-c3ccccc3[N+](=O)[O-])o2)SC1=Nc1ccc(Cl)c(C(=O)O)c1` the value was “inactive”. `O=C(/C=C/c1ccc(-c2ccccc2)o1)c1ccccc1`: the percent span inhibition result is “inactive”.

Consider `COc1ccc(OC)c2sc(NC(=O)c3ccc(Br)s3)nc12`, for which the percent span inhibition result is “inactive”. On the same count and under the same terms, for `CCC(/C=C1\Sc2ccc(OC)cc2N1CCO)=C\c1sc2ccc(OC)cc2[n+]1CCO` the value was “inactive”; for `Cc1cc(C)c(S(=O)(=O)/N=C2/C=C(SCC(=O)O)C(=O)c3ccccc32)cc1C`, “inactive”; for `CCc1nnc(NC(=O)CSc2nnc(COc3ccc(C)cc3)n2-c2ccccc2)s1`, “inactive”.

As to `O=C1CSc2ccc(C(=O)Nc3cccc(S(=O)(=O)Nc4ccc(Br)cc4)c3)cc2N1`, the percent span inhibition result is “inactive”. The same measure, in the same setting: the result for `OCCC1CN(Cc2nc3c(s2)CCCC3)CCN1Cc1ccsc1` (configuration not stated) reads “inactive”; that for `Cc1ccc(C(=O)NNC(=O)c2ccc3ncccc3c2)cc1`, “inactive”. Consider `CNc1ccc(Br)cc(C(=O)/C=C/c2cc(OC)ccc2OC)c1=O`, for which the percent span inhibition entry is “inactive”. Same read-out and setting: the result for `CCn1c(C)c(/C=N/Nc2nc3ccccc3s2)c2ccccc21` reads “inactive”; that for `Cc1ccc(NC2=C(Cl)C(=O)c3ccccc3C2=O)cc1`, “inactive”; that for `O=C(c1cnccn1)N1CCN(c2ccccc2F)CC1`, “inactive”. For the compound `O=C(CNC(=O)c1ccc(S(=O)(=O)N2CCCC2)cc1)N/N=C/c1ccc(Cl)cc1Cl`, the percent span inhibition entry was “inactive”.
